Source: patent US4358456A, “Antipsychotic piperidinomethyl-indole derivatives” (John Wyeth & Brother Limited, priority 1980, dated 1982)

How the values were obtained:
[1] = test system: dopamine receptors; assay: Test 1 Inhibition of Amphetamine Induced Stereotypy; format: in vivo, rats; details: for ED50, inhibition of amphetamine induced stereotypy: rats
Excerpt: Test 1 Inhibition of Amphetamine Induced Stereotypy

[2] = test system: dopamine receptors; assay: Dopamine antagonism, overall statement on Tests 1, 2 and 3; details: for antagonist activity at dopaminergic reception (in words): results of Table 2, Tests 1 and 3, 50 mg/kg for Examples 6 and 7
[3] = test system: dopamine receptors; assay: Test 3 Inhibition of p-chloroamphetamine hyperactivity; format: in vivo, mice; details: for ED50, inhibition of pCA induced hyperactivity: Table 2, mice
Procedure: Test 3 Inhibition of p-chloroamphetamine hyperactivity
C=mean activity of control groups 10-30 minutes post pCA.
T=mean activity of treated groups 10-30 minutes post pCA.
This test is used as an in vivo screen for detection of 5-hydroxytryptamineuptake inhibitors.

[4] = Test 4 Increase in Halothane Induced Sleep Time (sedative potential); format: in vivo, mice; details: for ED50, increase in halothane induced sleep time: mice, one hour before 3% halothane, dose increasing duration of loss of righting reflex by 50%
Procedure: Test 4 Increase in Halothane Induced Sleep Time
Groups of 6 mice received the test compounds or the requisite volume of vehicle p.o. one hour before being placed in a perspex container. A gas mixture containing 3% halothane in oxygen was passed through this container for 5 minutes. Next the mice were removed and placed on their backs and the latency to the restoration of the righting reflex noted.
The doses shown are those calculated to increase the duration of halothane induced loss of righting reflex by 50%.

[5] = test system: dopamine receptors; assay: Test 2 Inhibition of Apomorphine Induced Climbing; format: in vivo, mice; details: Table I; for ED50, inhibition of apomorphine induced climbing: mice, compound one hour before 10 mg/kg apomorphine, dose reducing climbing score by 50%
[6] = Test 5 Increase in Fall Rate From Revolving Drum (ability to induce extrapyramidal effects); format: in vivo, mice; details: for TD50 at 1 h: mouse, in vivo, po, mice, one hour after dosing, dose inducing fall rate half of maximum theoretically possible, read-out: ED50, increase in fall rate from revolving drum
Procedure: Test 5 Increase in Fall Rate From Revolving Drum
Groups of 8 mice were trained to walk on a slowly revolving horizontal drum prior to dosing with various concentrations of the test drugs or vehicle. An hour later the mice were replaced on the drum and the number of times each animal fell during the following 3 minutes was noted (mice were replaced immediately after each fall). […] The doses shown are those calculated to induce a fall rate half that of the maximum theoretically possible.

[7] = Table I, compound one hour before 5 mg/kg d-amphetamine

Row | Structure (SMILES) | ED50, inhibition of amphetamine induced stereotypy ([1]; Table 2, 5 mg/kg d-amphetamine) | antagonist activity at dopaminergic reception (in words) [2] | ED50, inhibition of pCA induced hyperactivity ([3]; 20 mg/kg pCA ip) | ED50, inhibition of amphetamine induced stereotypy [1, 7] | ED50, increase in halothane induced sleep time ([4]; Table I) | ED50, inhibition of apomorphine induced climbing [5] | TD50 at 1 h ([6]; Table I) | also measured
1 | OC1(c2ccccc2)CCN(CCc2c[nH]c3ccccc23)CC1 [Example 6, 1-(2-(Indol-3-yl)ethyl)-4-hydroxy-4-phenylpiperidine, reference compound] | > 50 mg/kg p.o. | neither of the compounds of Examples 6 and 7 posses significant antagonist activity | > 50 mg/kg p.o. |  |  |  |  | 
2 | OC1(c2ccccc2)CCN(Cc2c[nH]c3ccccc23)CC1 [Example 2, 1-(Indol-3-ylmethyl)-4-hydroxy-4-phenylpiperidine] |  | both show activity | 32.6 mg/kg p.o. |  |  |  |  | 
3 | OC1(c2ccc(Cl)cc2)CCN(Cc2c[nH]c3ccccc23)CC1 [Example 1, 1-(Indol-3-ylmethyl)-4-hydroxy-4-(p-chlorophenyl)piperidine] | 25 mg/kg p.o. | both show activity | 10 mg/kg p.o. | 25 mg/kg p.o. | 200 mg/kg p.o. | 20 mg/kg p.o. | 50 mg/kg | A/B (ED50 Example 1 / ED50 Haloperidol), amphetamine induced stereotypy ([1]; Table I, ratio to haloperidol): 36; dopamine antagonist potency compared with haloperidol (in words) ([2]; Tests 1, 2 and 3, versus haloperidol): less potent dopamine antagonist than haloperidol; relative potency of Examples 1 and 2 (in words) ([2]; results of Table 2, Example 1 versus Example 2): the more potent; A/B (ED50 Example 1 / ED50 Haloperidol), halothane induced sleep time ([4]; Table I, ratio to haloperidol): 1000; selectivity ratio ([4]; mouse, in vivo, po, ratio of Test 4 dose to doses in Tests 1-3, read-out: dose prolonging halothane-induced sleep relative to doses required to inhibit dopaminergic responses): 8 to 20; sedative potential compared with haloperidol (in words) ([4]; versus haloperidol): lower than that of haloperidol; A/B (ED50 Example 1 / ED50 Haloperidol), apomorphine induced climbing ([5]; ratio to haloperidol): 40; A/B (ED50 Example 1 / ED50 Haloperidol), fall rate from revolving drum ([6]; Table I, ratio to haloperidol): 56; unwanted extrapyramidal effects compared with haloperidol (in words) ([6]; versus haloperidol): exhibits an advantage with regard to unwanted extrapyramidal effects; A/B (ED50 Example 1 / ED50 Haloperidol), p-chloro amphetamine hyperactivity ([3]; Table I, ratio to haloperidol): 33
4 | O=C(CCCN1CCC(O)(c2ccc(Cl)cc2)CC1)c1ccc(F)cc1 [Haloperidol, haloperidol, reference compound] |  |  |  | 0.7 mg/kg p.o. | 0.2 mg/kg p.o. | 0.5 mg/kg p.o. | 0.9 mg/kg | dose prolonging halothane-induced sleep compared with doses inhibiting dopaminergic responses (in words) ([4]; Test 4 versus Tests 1-3): prolongs halothane-induced sleep at doses lower than those required to ihibit dopaminergic responses; ED50, inhibition of p-chloro amphetamine hyperactivity ([3]; Table I, female mice, 20 mg/kg pCA ip, activity 10-30 minutes post pCA): 0.3 mg/kg p.o.
5 | OC1(c2ccc(Cl)cc2)CCN(CCc2c[nH]c3ccccc23)CC1 [Example 7, 1-(2-(Indol-3-yl)ethyl)-4-(p-chlorophenyl)-4-hydroxypiperidine, reference compound] | > 50 mg/kg p.o. | neither of the compounds of Examples 6 and 7 posses significant antagonist activity | > 50 mg/kg p.o. |  |  |  |  | 
